{
  "source": "patent US20070141714A1",
  "about": "“Method to detect small molecules binding to proteins using surface enhanced Raman scattering (SERS)” (Intel Corporation, priority 2005, published 2007)",
  "key": {"immunoglobulin G (IgG)": {"test_system": "immunoglobulin G (IgG)", "assay": "SERS detection of small molecule binding to protein after size exclusion spin column (negative control protein)", "conditions": "2.5 μM H-89, 0.2 mg/mL protein, same procedure", "protocol": "(§1) PIERCE ZEBA-ZEBA desalt spin columns (cat #89882) were washed 10 times with methanol and 10 times with purified water. H-89 was then mixed with PKA or control proteins in a PKA reaction buffer (50 mM Tris-HCl, 10 mM MgCl2), making a final H-89 concentration of 2.5 μM and protein concentration of 0.2 mg/mL. This mixture was incubated at room temperature for 30 minutes, added to a desalting size exclusion spin column, and spun at 1500 g for 2 minutes to remove free H-89.\n(§2) The silver colloids are aggregated by 0.5M of Lithium Chloride prior to addition of the sample. Ten spectra are collected from the mixture of sample and aggregated silver colloids. The remaining flow through is heated at 70° C. for 10 minutes, and another SERS measurement is performed. The line labeled PKA is the arithmetic difference in the SERS spectrums at 70° C. and room temperature (intensity on the primary y-axis). The main characteristic peaks of H-89 are visible and marked by black arrows.\n(§3) The same procedure described above is repeated with other proteins including bovine serum albumin (labeled BSA), immunoglobulin G (labeled IgG), and Histone (labeled as Histone) as negative controls. The SERS spectrum corresponding to H-89 is not seen in any of these controls."}, "[1]": {"molecular_target": "bovine serum albumin (BSA) (Bos taurus, UniProt P02769)", "sequence (P02769 25-607)": "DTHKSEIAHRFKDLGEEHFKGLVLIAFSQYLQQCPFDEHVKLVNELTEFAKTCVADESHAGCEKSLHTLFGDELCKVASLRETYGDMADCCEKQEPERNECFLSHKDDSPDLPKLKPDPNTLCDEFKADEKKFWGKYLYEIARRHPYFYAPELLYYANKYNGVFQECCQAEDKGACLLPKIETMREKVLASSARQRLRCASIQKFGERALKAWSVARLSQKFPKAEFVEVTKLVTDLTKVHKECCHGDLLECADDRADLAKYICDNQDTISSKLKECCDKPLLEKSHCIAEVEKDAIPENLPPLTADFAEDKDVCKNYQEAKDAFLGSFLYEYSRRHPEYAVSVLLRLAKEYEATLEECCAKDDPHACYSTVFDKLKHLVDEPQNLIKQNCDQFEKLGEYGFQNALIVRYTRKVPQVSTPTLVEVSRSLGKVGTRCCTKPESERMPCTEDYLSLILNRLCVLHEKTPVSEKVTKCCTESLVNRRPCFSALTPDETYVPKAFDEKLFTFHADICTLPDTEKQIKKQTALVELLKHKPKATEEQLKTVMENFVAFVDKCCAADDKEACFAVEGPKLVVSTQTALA", "assay": "SERS detection of small molecule binding to protein after size exclusion spin column (negative control protein)", "conditions": "2.5 μM H-89, 0.2 mg/mL protein, same procedure", "protocol": "as §1, §2, §3"}, "Histone": {"test_system": "Histone", "assay": "SERS detection of small molecule binding to protein after size exclusion spin column (negative control protein)", "conditions": "2.5 μM H-89, 0.2 mg/mL protein, same procedure", "protocol": "as §1, §2, §3"}, "protein kinase A (PKA)": {"molecular_target": "protein kinase A (PKA) (Homo sapiens, UniProt P17612)", "assay": "SERS detection of small molecule binding to protein after size exclusion spin column", "conditions": "2.5 μM H-89, 0.2 mg/mL protein, PKA reaction buffer, 30 minutes at room temperature; flow through, difference of SERS spectra at 70° C. and room temperature", "protocol": "In FIG. 2 small molecules and proteins are mixed in a purification column such as a size exclusion spin column and are allowed to incubate for a period of time. The incubation times depends on the binding affinity between the small molecule and the protein. Typically an incubation time of 10-30 minutes at room temperature is sufficient. The solvent used in the purification column is preferably chosen to optimize binding between the small molecules and the proteins. For example, PKA reaction buffer (50 mM Tris-HCl, 10 mM MgCl2) is preferably used for optimal binding between PKA and H-89.\nFor example, molecules with molecular weights below a certain cut-off value are retained in the size-exclusion type purification columns while protein molecules are collected in the flow through. Any small molecules that bind to the protein can also be carried through the column with the protein and recovered in the flow through. Raman spectroscopy using SERS active particles can be used to detect the small molecules in the flow through.\nIn FIG. 2-2 the small molecules are first released from the proteins in the flow through by, for example, heating the flow through. Raman spectroscopy is then again used to detect the presence of the small molecules in the flow through.\nH-89 is a known small molecule inhibitor to protein kinase A (PKA). […]"}},
  "data": [
    {"smiles": "O=S(=O)(NCCNC/C=C/c1ccc(Br)cc1)c1cccc2cnccc12", "note": "[H-89]", "values": [
      {"measurement": "specific binding to IgG (SERS spectrum corresponding to H-89)", "setting": "immunoglobulin G (IgG)", "result": "specific binding of H-89 to the control proteins did not occur"},
      {"measurement": "specific binding to BSA (SERS spectrum corresponding to H-89)", "setting": "[1]", "result": "specific binding of H-89 to the control proteins did not occur"},
      {"measurement": "specific binding to Histone (SERS spectrum corresponding to H-89)", "setting": "Histone", "result": "specific binding of H-89 to the control proteins did not occur"},
      {"measurement": "binding to PKA (characteristic H-89 peaks in SERS difference spectrum)", "setting": "protein kinase A (PKA)", "result": "there was binding of H-89 to PKA"}
    ]}
  ]
}
